Experiments:
Type in all cases: cell-based, human
[1] = system: CSC markers CD44, CD133, EpCAM, LGR5, CXCR-4; assay: Western blot of CSC markers in HT-29 spheroids; details: HT-29 spheroids, 100 μM, Western blot densitometry vs vehicle
Protocol: (§1) Western Blotting Analysis. Western blot analysis was performed according to the standard protocol described in the literature. Briefly, HT-29 cells were plated in serum-free SCM in a low adhesion 6-well plate to obtain spheroids. Mature spheroids were treated on day 4 after plating, with vehicle or NSGMs for indicated time and cells were solubilized in lysis buffer (20 mM Na3PO4, 100 mM NaCl, 2 mM EDTA, 1% Nonidet P-40, 2.5 mM Na3VO4) containing protease (Roche) as well as phosphatase inhibitor cocktails (Sigma). Following centrifugation at 14,000 g for 15 min, the supernatant was used for Western blot analysis. In all analyses, protein concentration was determined by the Bio-Rad Protein Assay kit (Bio-Rad). Approximately 25-50 μg of protein was separated by polyacrylamide gel electrophoresis and was transferred to PVDF membrane (Bio-Rad). Blocking was done with 5% low fat milk powder for 1 hr followed by overnight incubation with primary antibody (dilution 1:1000): anti-CD44 (Cell Signaling), anti-EpCAM (Cell Signaling), anti-LGR5 (Origene), anti-CD133 ((Miltenyi Biotec), anti-CXCR4 (Abeam), anti-OCT4 (Cell Signaling), anti-BMI-1 (Millipore), anti-c-MYC (Millipore) and anti-CK20 (Abeam). This was followed by incubation with appropriate secondary antibody and protein bands were visualized using the enhanced chemiluminescence detection system and imaged with LAS-3000 Imaging System (FUJIFILM). Densitometry was determined by AIDA image analyzer software (Raytest) and results were calculated as relative intensity compared to control. All experiments were performed at least three times.

[2] = system: HCT-116 cells, grown in spheroid condition; assay: Apoptosis assay (annexin V/propidium iodide and acridine orange/ethidium bromide); details: annexin V labeling and acridine orange/ethidium bromide staining, 100 μM, 24 hours, vs vehicle
Protocol: Apoptosis Assay. Human colon cancer HCT-116 cells, grown in spheroid condition were treated with vehicle or NSGMs for 24 hours. Following which cells were trypsinized and single cells were re-suspended at 10^6 cells/mL in PBS buffer. Two different methods were used to assess apoptosis induction. In the first methods, cells were incubated with propidium iodide and Annexin V-APC (ebioscience) and flow cytometric analyses were performed as above. […] Briefly, a small volume of cell suspension was mounted on a glass slide and incubated with 1 μl of AO/EB solution and mixed gently just prior to microscopy and quantification. At least 500 cells in 10-15 fields were examined in each sample using Nikon ECLIPSE E800M fluorescence microscope using 20× objective. […] The data was expressed as apoptosis index=[([apoptotic cells (NSGMs)/total cells (NSGMs)]/[apoptotic cells (vehicle)/total cells (vehicle)]).

[3] = system: HT-29 cells; assay: Primary (1°) colonosphere formation assay, HT-29 (Screen 1); details: 100 μM
Protocol: Primary (1°) Colonosphere Formation Assay. For primary sphere formation, cells were plated in non-treated, low adhesion, 96 wells plate at the concentration of 100 cells/100 μL/well in stem cell media (SCM) that consisted of DMEM:F12:AA (Gibco), supplemented with 1×B27 (Gibco), 20 ng/mL epidermal growth factor and 10 ng/mL fibroblast growth factor (Sigma). After four hour of incubation, vehicle (control) or NSGM at the desired concentrations were added to each well (at least in triplicates for each sample). On day five, numbers of spheres ranging from […] in diameter were counted using phase contrast microscope and percent inhibition was calculated compared to control.
In this screen, sulfated NSGMs that inhibit HT-29 growth under spheroid conditions, but not under monolayer conditions, were then assessed for retention of 2° and 3° spheroid growth inhibition profiles in the absence of NSGM. The latter screen is of particular importance as primary spheroid growth although selective for CSCs doses not distinguish between non self-renewing progenitors and self-renewing CSCs. […] These 11 NSGMs belonged to G2, G4, G11 and G12 scaffolds but only four of the six G2 molecules, one of the two G4, four of the seven G11 and two of the five G12 molecules satisfied the first screen.

[4] = system: LGR5; assay: Flow cytometry analysis of CSC markers in HT-29 spheroids; details: 100 μM, vs vehicle-treated controls
Protocol: Flow Cytometry Analysis. Human colon cancer HT-29 cells, grown in spheroid or monolayer condition were treated with vehicle or NSGMs for 24 hours, were trypsinized and single cells were re-suspended at 10^6 cells/mL in PBS buffer. Cells were incubated with fluorophore conjugated antibody for 30 minutes at 4° C. and washed once with PBS buffer prior to analysis. Following antibody and dilution were used: LGR5-PE) (Dilution 1:50, Origene), DCLK1 (Dilution 1:33, Abeam). Cell sorting was performed using FACSAria™ II High-Speed Cell Sorter (BD Biosciences) and data were analyzed with FCS Express 4 Flow Cytometry software (De-Novo Software).

[5] = system: self-renewal factors OCT4, BMI-1, c-MYC; assay: Western blot of self-renewal factors in spheroids; details: 100 μM, HT-29
Protocol: as §1

O=c1cc(-c2ccc(OS(=O)(=O)O)c(OS(=O)(=O)O)c2)oc2cc(OS(=O)(=O)O)cc(OS(=O)(=O)O)c12 [G1.4]
reduction of expression of CSC markers (CD44, CD133, EpCAM, LGR5, CXCR-4) [1]: no effect | induction of apoptosis in spheroid cells [2]: no such effects | Screen 1 outcome (spheroid versus monolayer growth inhibition) [3]: completely failed | reduction in LGR5 (hi) cells [4]: < 15% | BMI-1 expression [5]: no such changes | c-MYC expression [5]: no such changes
